# Values of other authors in US20060188529A1 (priority 2004, published 2006).
# Test system: apo EKO mice
# [1] = fenofibrate added to phytosterols
smiles,measurement,setting,value
"CC(C)OC(=O)C(C)(C)Oc1ccc(C(=O)c2ccc(Cl)cc2)cc1 [fenofibrate, 2-[4-(4-chlorobenzoyl)phenoxy]-2-methyl-propanoic acid, 1-methylethyl ester]",effect on plasma triglyceride levels,combination of fenofibrate to phytosterols,no effect
same,decrease of HDL cholesterol concentrations,[1],50%
same,increase of plasma total cholesterol levels,[1],> 50%
